Average control % and mortality data for 17 compounds are collected here from patent US11578083B2, “Pyrimidinium compounds and their mixtures for combating animal pests” (BASF SE, priority 2017, dated 2023).

What all share (format): in vivo
Assay [1] relates to green peach aphid (Myzus persicae). Kind of assay: Test 2 green peach aphid, artificial diet (mixtures). An excerpt:
(§1) For evaluating control of green peach aphid (Myzus persicae) through systemic means the test unit consisted of 96-well-microtiter plates containing liquid artificial diet under an artificial membrane.
(§2) The compounds or mixtures were formulated using a solution containing 75% water and 25% DMSO. Concentrations of formulated compounds or mixtures were pipetted into the aphid diet, using a custom built pipetter, at two replications.
(§3) For experimental mixtures in these tests identical volumes of both mixing partners at the desired concentrations respectively, were mixed together.
(§4) After application, 5-8 adult aphids were placed on the artificial membrane inside the microtiter plate wells. The aphids were then allowed to suck on the treated aphid diet and incubated at 23±1° C., 50±5% RH for 3 days. Aphid mortality and fecundity was then visually assessed.

Assay [2] concerns tobacco budworm (Heliothis virescens). Kind of assay: Test 4 tobacco budworm, insect diet with eggs (mixtures). Here is the method:
(§5) For evaluating control of tobacco budworm (Heliothis virescens) the test unit consisted of 96-well-microtiter plates containing an insect diet and 15-25 H. virescens eggs.
The compounds or mixtures were formulated using a solution containing 75% water and 25% DMSO. Concentrations of formulated compounds or mixtures were sprayed onto the insect diet at 10 μl, using a custom built micro atomizer, at two replications.
as §3
(§6) After application, microtiter plates were incubated at 28±1° C., 80±5% RH for 5 days. Egg and larval mortality was then visually assessed.

The subject of assay [3] is green peach aphid (Myzus persicae). Kind of assay: Test 8 green peach aphid, artificial diet (mixtures).
Excerpt: as §1, §2, §3, §4

Assay [4] has as its system boll weevil (Anthonomus grandis). Kind of assay: Test 3 boll weevil, insect diet with eggs (mixtures). Here is the method: (§7) For evaluating control of boll weevil (Anthonomus grandis) the test unit consisted of 24-well-microtiter plates containing an insect diet and 20-30 A. grandis eggs.
(§8) The compounds or mixtures were formulated using a solution containing 75% water and 25% DMSO. Concentrations of formulated compounds or mixtures were sprayed onto the insect diet at 20 μl, using a custom built micro atomizer, at two replications.
as §3
(§9) After application, microtiter plates were incubated at 23±1° C., 50±5% RH for 5 days. Egg and larval mortality was then visually assessed.

Assay [5] has as its system Greenhouse Whitefly (Trialeurodes vaporariorum). Kind of assay: Test 11 Greenhouse Whitefly, egg plant leaf disk (mixtures). To be noted: use rate 2500 ppm. As to the method: For evaluating control of Greenhouse Whitefly (Trialeurodes vaporariorum) the test unit consisted of 96-well-microtiter plates containing a leaf disk of egg plant leaf disk with white fly eggs.
The compounds or mixtures were formulated using a solution containing 75% water and 25% DMSO. Different concentrations of formulated compounds or mixtures were sprayed onto the insect diet at 2.5 μl, using a custom built micro atomizer, at two replications.
as §3
After application, microtiter plates were incubated at 23±1° C., 65±5% RH for 6 days. Mortality of hatched crawlers was then visually assessed.

In assay [6] the test system is Thrips (Dichromothrips corbetti). The assay can be described thus: B.4 Thrips floral-immersion test. To be noted: Dose 10 ppm, 72 hours after treatment, read-out: Mortality %. As to the method:
B.4 Thrips (Dichromothrips Corbetti):
Dichromothrips corbetti adults used for bioassay are obtained from a colony maintained continuously under laboratory conditions. For testing purposes, the test compound is diluted in a 1:1 mixture of acetone:water (vol:vol), plus 0.01% vol/vol Alkamuls® EL 620 surfactant.
Thrips potency of each compound is evaluated by using a floral-immersion technique. Plastic petri dishes are used as test arenas. All petals of individual, intact orchid flowers are dipped into treatment solution and allowed to dry. Treated flowers are placed into individual petri dishes along with about 20 adult thrips. The petri dishes v then covered with lids. All test arenas are held under continuous light and a temperature of about 28° C. for duration of the assay. After 3 days, the numbers of live thrips are counted on each flower, and along inner walls of each petri dish. The percent mortality is recorded 72 hours after treatment.

Assay [7] deals with Cowpea aphid (Aphis craccivora). The assay can be described thus: B.3 Cowpea aphid leaf disk test. To be noted: foliar, 120 h, Cowpea aphid, Dose 1 ppm, 5 days, read-out: Mortality %. Here is the method: If not otherwise specified, the test solutions are prepared as follows:
The active compound is dissolved at the desired concentration in a mixture of 1:1 (vol:vol) distilled water: acetone. The test solution is prepared at the day of use.
B.3 Cowpea aphid (Aphis craccivora):
For evaluating control of Cowpea aphid through contact or systemic means the test unit consists of 24-well-microtiter plates containing broad bean leaf disks.
The compounds are formulated using a solution containing 75% v/v water and 25% v/v DMSO. Different concentrations of formulated compounds are sprayed onto the leaf disks at 2.5 μl, using a custom built micro atomizer, at two replications.
After application, the leaf disks are air-dried and 5-8 adult aphids placed on the leaf disks inside the microtiter plate wells. The aphids are then allowed to suck on the treated leaf disks and incubated at about 23±1° C. and about 50±5% relative humidity for 5 days. Aphid mortality and fecundity is then visually assessed.

Assay [8] has as its system Rice green leafhopper (Nephotettix virescens). Kind of assay: B.1 Rice green leafhopper, sprayed rice seedlings. The note with it: Rice green leafhopper, Dose 1 ppm, after 72 hours, read-out: Mortality %. As to the method: B.1 Rice Green Leafhopper (Nephotettix virescens):
Rice seedlings are cleaned and washed 24 hours before spraying. The active compounds are formulated in 50:50 acetone:water (vol:vol), and 0.1% vol/vol surfactant (EL 620) is added. Potted rice seedlings are sprayed with 5 ml test solution, air dried, placed in cages and inoculated with 10 adults. Treated rice plants are kept at about 28-29° C. and relative humidity of about 50-60%. Percent mortality is recorded after 72 hours.

Assay [9] concerns Rice brown plant hopper (Nilaparvata lugens). Kind of assay: B.2 Rice brown plant hopper, sprayed rice seedlings. To be noted: Rice brown plant hopper, Dose 1 ppm, after 72 hours, read-out: Mortality %. As to the method: B.2 Rice Brown Plant Hopper (Nilaparvata lugens):
Rice seedlings are cleaned and washed 24 hours before spraying. The active compounds are formulated in 50:50 acetone:water (vol:vol) and 0.1% vol/vol surfactant (EL 620) is added. Potted rice seedlings are sprayed with 5 ml test solution, air dried, placed in cages and inoculated with 10 adults. Treated rice plants are kept at about 28-29° C. and relative humidity of about 50-60%. Percent mortality is recorded after 72 hours.

For assay [10], the system named is boll weevil (Anthonomus grandis). Kind of assay: Test 9 boll weevil, insect diet with eggs (mixtures). Here is the method:
as §7, §8, §3, §9

The subject of assay [11] is vetch aphid (Megoura viciae). Kind of assay: Test 7 vetch aphid, leaf disks (mixtures). To be noted: use rate 2500 ppm. As to the method: For evaluating control of vetch aphid (Megoura viciae) through contact or systemic means the test unit consisted of 24-well-microtiter plates containing broad bean leaf disks.
The compounds or mixtures were formulated using a solution containing 75% water and 25% DMSO. Concentrations of formulated compounds or mixtures were sprayed onto the leaf disks at 2.5 μl, using a custom built micro atomizer, at two replications.
as §3
After application, the leaf disks were air-dried and 5-8 adult aphids placed on the leaf disks inside the microtiter plate wells. The aphids were then allowed to suck on the treated leaf disks and incubated at 23±1° C., 50±5% RH for 5 days. Aphid mortality and fecundity was then visually assessed.

Assay [12] deals with tobacco budworm (Heliothis virescens). Kind of assay: Test 10 tobacco budworm, insect diet with eggs (mixtures). To be noted: use rate 2500 ppm. Here is the method:
as §5
The compounds or mixtures were formulated using a solution containing 75% water and 25% DMSO. Different concentrations of formulated compounds or mixtures were sprayed onto the insect diet at 10 μl, using a custom built micro atomizer, at two replications.
as §3, §6

The subject of assay [13] is brown planthopper (Nilaparvata lugens). The assay can be described thus: Test 6 brown planthopper, foliar spray (mixtures). The note with it: Table 6.1, after 7 days, solo application Pymetrozine, use rate 300 ppm. As to the method: For evaluating control of brown planthopper (Nilaparvata lugens) by foliar spray method. Clean potted rice seedlings with upper leaf portion cut are properly labeled. Placed three potted rice plants per treatment concentration/combination on top of the rotating disc (270 mm) and sprayed with the 12 mL spray solution. Treated plants are allowed to air-dry in the laboratory for about an hour. After air-drying, covered each treated rice plant. Each treated plant was infested with brown planthoppers using a suction vacuum. Plants are maintained at 27° C.±1° C., 50±5% RH and 24 hours light conditions in a holding room. Percent mortality is recorded 7 days after infestation by counting both the dead and alive brown planthoppers on the plants and on the water.

On to `N#CCNC(=O)c1cnccc1C(F)(F)F` [Flonicamid, flonicamid, reference compound], for which, in assay [1] (Table 2.5, solo application Flonicamid, use rate 2 ppm), the Average control % is recorded as 0%.
For `CC1(C)C(C=C(Cl)Cl)C1C(=O)OC(C#N)c1cccc(Oc2ccccc2)c1` (stereo not drawn) [Alpha-Cypermethrin, alpha-cypermethrin, reference compound], the Average control % stood at 50% in assay [2] (Table 4.2, solo application Alpha-Cypermethrin, use rate 2 ppm) and 0% in assay [1] (Table 2.6, solo application Alpha-Cypermethrin, use rate 10 ppm).
For the compound `C[C@@H](NC(=O)C(C#N)C(C)(C)C)c1ccc(Cl)cc1Cl` (stereo partly shown) [Dicyclomet, dicyclomet, reference compound], the Average control % in assay [3] (Table 8.2, solo application Dicyclomet, use rate 2500 ppm) came to 0%.
With `O=C(NC(=O)c1c(F)cccc1F)Nc1ccc(Oc2ccc(C(F)(F)F)cc2Cl)cc1F` [Flufenoxuron, flufenoxuron, reference compound], the Average control % is on record as 0% in assay [4] (Table 3.1, solo application Flufenoxuron, use rate 0.8 ppm) and 0% in assay [1] (Table 2.2, solo application Flufenoxuron, use rate 0.8 ppm).
In the case of `CC(C)N1C(=O)N(c2ccccc2)CS/C1=N\C(C)(C)C` [Buprofezin, buprofezin, reference compound], in assay [5] (Table 11.2, solo application Buprofezin), the Average control % stood at 50%.
As a reminder, the mortality is the share of the test organisms that died. Consider `C[n+]1c([O-])c(-c2ccccc2)c(=O)n2c1SC[C@H]2c1cnc(Cl)s1` [I-S-1, S-3-(2-chlorothiazol-5-yl)-8-methyl-7-oxo-6-phenyl-2,3-dihydrothiazolo[3,2-a] pyrimidin-8-ium-5-olate], for which the mortality at 10 ppm in [6] came out at 0%. Further, the mortality at 1 ppm in [7], in assay [8] and in assay [9] was 0% in each case.
For the compound `Cc1nn(C)c(F)c1C(=O)Nc1ccccc1C(C)CC(C)C` (stereo not shown) [Penflufen, penflufen, reference compound], in assay [10] (Table 9.1, solo application Penflufen, use rate 2500 ppm), the Average control % came out at 0%.
In the case of `Cc1nn(C)c(Cl)c1C(=O)Nc1cccc2c1C(C)OC2(C)C` (stereo not shown) [Furametpyr, furametpyr, reference compound], in assay [11] (Table 7.1, solo application Furametpyr), the Average control % stood at 0%.
Take `CON=CNC(=O)c1ccc(C2=NOC(c3cc(Cl)cc(Cl)c3)(C(F)(F)F)C2)cc1C` (stereo not shown) [Fluxametamide, fluxametamide, reference compound]: in [4] (Table 3.3, solo application Fluxametamide, use rate 0.4 ppm), the Average control % was 25%.
With `O=C1CCc2cccc3c2N1CC3` [Pyroquilon, pyroquilon, reference compound], in assay [12] (Table 10.2, solo application Pyroquilon), the Average control % came out at 0%.
For the compound `COC(=O)N(C(=O)N1CO[C@@]2(C(=O)OC)Cc3cc(Cl)ccc3C2=N1)c1ccc(OC(F)(F)F)cc1` [Indoxacarb, indoxacarb, reference compound], in assay [1] (Table 2.4, solo application Indoxacarb, use rate 2 ppm), the Average control % stood at 0%.
As for `C=CCOC1=NS(=O)(=O)c2ccccc21` [Probenazole, probenazole, reference compound], the Average control % in assay [12] (Table 10.1, solo application Probenazole) is recorded as 0%; in [3] (Table 8.1, solo application Probenazole, use rate 500 ppm), 0%.
On to `CC1=NNC(=O)N(/N=C/c2cccnc2)C1` [Pymetrozine, pymetrozine, reference compound], for which the Average control % in assay [2] (Table 4.1, solo application Pymetrozine, use rate 10 ppm) was determined as 0%; in assay [13], 26%.
For the compound `O=c1c(-c2cccc(C(F)(F)F)c2)c([O-])[n+](Cc2cncnc2)c2ccccn12` [Triflumezopyrim, triflumezopyrim, reference compound], the Average control % in assay [1] (Table 2.3, solo application Triflumezopyrim, use rate 0.4 ppm) stood at 0%.
As for `COCC(=O)N(c1c(C)cccc1C)C(C)C(=O)OC` (stereo not shown) [Metalaxyl, metalaxyl, reference compound], the Average control % in assay [11] (Table 7.2, solo application Metalaxyl) was 0%; in [10] (Table 9.2, solo application Metalaxyl, use rate 500 ppm), 0%.
On to spinosad [reference compound], for which the Average control % in assay [1] (Table 2.1, solo application Spinosad, use rate 4 ppm) is 0%.
Consider `C[Si](C)(C)CC(O)(Cn1cncn1)c1ccc(F)cc1` (stereo not shown) [Simeconazol, simeconazole, reference compound], for which, in assay [5] (Table 11.1, solo application Simeconazol), the Average control % worked out at 0%.
